Reference: paper PMC7031696 (Cell chemical biology, 2019)

System: 3D7-MR4 trophozoite parasite-infected RBCs
Assay: Metabolomic profiling (hydrophilic metabolite changes, UHPLC-MS)
Assay type: cell-based, Plasmodium falciparum

CC(C)(C)NCc1cc(Nc2ccnc3cc(Cl)ccc23)c2c(c1O)CCCC2 [Naphtoquine, Naphthoquine, reference compound]
Log2(fold changes) adenosine (metabolite adenosine, log2 fold change): 0.0000 | Log2(fold changes) alanine/sarcosine (metabolite alanine/sarcosine, log2 fold change): -0.0537 | Log2(fold changes) anthranilate (metabolite anthranilate, log2 fold change): 0.0000 | Log2(fold changes) arginine (metabolite arginine, log2 fold change): 0.0159 | Log2(fold changes) asparagine (metabolite asparagine, log2 fold change): 0.0139 | Log2(fold changes) aspartate (metabolite aspartate, log2 fold change): -0.0605 | Log2(fold changes) biotin (metabolite biotin, log2 fold change): 0.0000 | Log2(fold changes) cCMP (metabolite cCMP, log2 fold change): 0.0520 | Log2(fold changes) cGMP (metabolite cGMP, log2 fold change): 0.0000 | Log2(fold changes) carnitine (metabolite carnitine, log2 fold change): 0.0000 | Log2(fold changes) citrate/isocitrate (metabolite citrate/isocitrate, log2 fold change): -0.0500 | Log2(fold change) of coenzyme A (metabolite coenzyme A): -0.1736 | Log2(fold change) of cyclic-AMP (metabolite cyclic-AMP): -3.95e-5 | Log2(fold change) of cytidine (metabolite cytidine): 0.0481 | Log2(fold change) of dAMP (metabolite dAMP): -0.6907 | Log2(fold change) of dATP (metabolite dATP): 0.1926 | Log2(fold change) of dCDP (metabolite dCDP): -0.7164 | Log2(fold change) of dCMP (metabolite dCMP): -0.1991 | Log2(fold change) of dCTP (metabolite dCTP): -0.0054 | Log2(fold change) of dGDP/ADP (metabolite dGDP/ADP): -0.3882 | Log2(fold change) of dGMP/AMP (metabolite dGMP/AMP): -0.6721 | Log2(fold change) of dGTP/ATP (metabolite dGTP/ATP): 0.1282 | Log2(fold change) of dTDP (metabolite dTDP): -0.6082 | Log2(fold change) of dTMP (metabolite dTMP): -0.8354 | Log2(fold change) of dTTP (metabolite dTTP): 0.1193 | Log2(fold change) of dUMP (metabolite dUMP): 0.0000 | Log2(fold change) of dUTP (metabolite dUTP): 0.0000 | Log2(fold change) of deoxyguanosine (metabolite deoxyguanosine): 0.0000 | Log2(fold change) of deoxyinosine (metabolite deoxyinosine): 0.0000 | Log2(fold change) of deoxyribose-phosphate (metabolite deoxyribose-phosphate): 0.0000 | Log2(fold change) of deoxyuridine (metabolite deoxyuridine): 0.0000 | Log2(fold change) of dihydroorotate (metabolite dihydroorotate): -0.0270 | Log2(fold change) of folate (metabolite folate): -0.0482 | Log2(fold change) of fructose-1-6-bisphosphate (metabolite fructose-1-6-bisphosphate): 0.2760 | Log2(fold change) of fructose-6-phosphate (metabolite fructose-6-phosphate): 0.2447 | Log2(fold change) of fumarate (metabolite fumarate): 0.1140 | Log2(fold change) of glucono-lactone (metabolite glucono-lactone): 0.0480 | Log2(fold change) of glucose-1/6-phosphate (metabolite glucose-1/6-phosphate): 0.0000 | Log2(fold change) of glutamate (metabolite glutamate): 0.0377 | Log2(fold change) of glutamine (metabolite glutamine): 0.0892 | Log2(fold change) of glutathione (metabolite glutathione): -0.0422 | Log2(fold change) glutathione disulfide (metabolite glutathione disulfide): -0.0039 | Log2(fold change) glycerate (metabolite glycerate): 0.0000 | Log2(fold change) guanine (metabolite guanine): -1.1501 | Log2(fold change) guanosine (metabolite guanosine): 0.0000 | Log2(fold change) histidine (metabolite histidine): 0.1439 | Log2(fold change) homocysteic acid (metabolite homocysteic acid): 0.0000 | Log2(fold change) hydroxyphenylpyruvate (metabolite hydroxyphenylpyruvate): 0.0000 | Log2(fold change) hydroxyproline/Aminolevulinate (metabolite hydroxyproline/Aminolevulinate): 0.1631 | Log2(fold change) hypoxanthine (metabolite hypoxanthine): 0.0000 | Log2(fold change) indole (metabolite indole): 0.0000 | Log2(fold change) inosine (metabolite inosine): -0.4099 | Log2(fold change) isoleucine (metabolite isoleucine): 0.1976 | Log2(fold change) lactate (metabolite lactate): -0.2436 | Log2(fold change) leucine (metabolite leucine): 0.1923 | Log2(fold change) lysine (metabolite lysine): 0.0742 | Log2(fold change) malate (metabolite malate): 0.0333 | Log2(fold change) maleic acid (metabolite maleic acid): 0.0474 | Log2(fold change) methionine (metabolite methionine): 0.2831 | Log2(fold change) myo-inositol (metabolite myo-inositol): -0.3601 | Log2(fold change) nicotinamide mononucleotide (metabolite nicotinamide mononucleotide): 0.0144 | Log2(fold change) nicotinate (metabolite nicotinate): -0.5500 | Log2(fold change) ornithine (metabolite ornithine): 0.0000 | Log2(fold change) orotate (metabolite orotate): -0.1816 | Log2(fold change) orotidine-5'-phosphate (metabolite orotidine-5'-phosphate): -0.1754 | Log2(fold change) oxaloacetate (metabolite oxaloacetate): 0.0000 | Log2(fold change) p-aminobenzoate (metabolite p-aminobenzoate): 0.0000 | Log2(fold change) p-hydroxybenzoate (metabolite p-hydroxybenzoate): 0.0000 | Log2(fold change) pantothenate (metabolite pantothenate): 0.0000 | Log2(fold change) phenylalanine (metabolite phenylalanine): 0.1566 | Log2(fold change) phenylpyruvate (metabolite phenylpyruvate): 0.0000 | Log2(fold change) phosphoenolpyruvate (metabolite phosphoenolpyruvate): 0.1381 | Log2(fold change) prephenate (metabolite prephenate): 0.0000 | Log2(fold change) proline (metabolite proline): -0.0640 | Log2(fold change) pyridoxine (metabolite pyridoxine): -0.2953 | Log2(fold change) pyruvate (metabolite pyruvate): -0.0949 | Log2(fold change) riboflavin (metabolite riboflavin): 0.0784 | Log2(fold change) ribose (metabolite ribose): 0.2671 | Log2(fold change) ribose-phosphate (metabolite ribose-phosphate): 0.0683 | Log2(fold change) ribulose-5-phosphate (metabolite ribulose-5-phosphate): 0.2669 | Log2(fold change) serine (metabolite serine): 0.0398 | Log2(fold change) sn-glycerol-3-phosphate (metabolite sn-glycerol-3-phosphate): 0.2727 | Log2(fold change) succinate/Methylmalonic acid (metabolite succinate/Methylmalonic acid): 0.1812 | Log2(fold change) succinyl-CoA/methylmalonyl-CoA (metabolite succinyl-CoA/methylmalonyl-CoA): 0.0000 | Log2(fold change) taurine (metabolite taurine): 0.1018 | Log2(fold change) thiamine (metabolite thiamine): -0.0320 | Log2(fold change) threonine/homoserine (metabolite threonine/homoserine): -0.0093 | Log2(fold change) thymidine (metabolite thymidine): 0.0000 | Log2(fold changes) thymine (metabolite thymine, log2 fold change): 0.0000 | Log2(fold changes) trehalose-6-Phosphate (metabolite trehalose-6-Phosphate, log2 fold change): 0.0000 | Log2(fold changes) tryptophan (metabolite tryptophan, log2 fold change): 0.2627 | Log2(fold changes) tyrosine (metabolite tyrosine, log2 fold change): 0.1902 | Log2(fold changes) uridine (metabolite uridine, log2 fold change): 0.0000 | Log2(fold changes) valine (metabolite valine, log2 fold change): 0.0658 | Log2(fold changes) xanthine (metabolite xanthine, log2 fold change): -0.8439 | Log2(fold changes) xanthosine-5-phosphate (metabolite xanthosine-5-phosphate, log2 fold change): 0.0356 | Log2(fold changes) xanthosine (metabolite xanthosine, log2 fold change): 0.2527 | Log2(fold changes) xylose (metabolite xylose, log2 fold change): 0.0000
